Measured values from PubChem BioAssay AID1259411 (Chemical Carcinogenesis Research Information System (CCRIS), 2018).
Active and inactive are the calls of the source. No rule for the calls is given here.

System: rodent carcinogenicity bioassays, tumor incidence
Assay: CCRIS carcinogenicity studies
Conditions: Dose: 0, Dose: 0
Outline: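 NCI-built, expert-reviewed records of carcinogenicity and related test outcomes (mutagenicity, tumor promotion/inhibition) compiled from published and report sources, historical span 1985-2011, not updated.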

Measured: carcinogen call

O.O.O.O.O.[Cd+2].[Cd+2].[Cl-].[Cl-].[Cl-].[Cl-]
active: Species: HAMSTER, Strain/Sex: SYRIAN/MALE, Route: SUBCUTANEOUS, 20 UMOL/KG ONCE (STUDY DURATION: 104 WK), Tumor Site: Type of Lesion: ADRENAL GLAND: TUMOR active; positive | Species: MOUSE, Strain/Sex: NFS/MALE, Route: SUBCUTANEOUS, 20 UMOL/KG ONCE (STUDY DURATION: 104 WK), Tumor Site: Type of Lesion: LYMPHOID TISSUE: LYMPHOMA active; positive | Species: RAT, Strain/Sex: WISTAR/MALE, Route: ORAL, 25, 50, 100, 200 PPM IN DIET FOR 77 WK TO RATS MAINTAINED ON ZINC ADEQUATE (60 PPM) DIET (STUDY DURATION: 79 WK), 25, 50, 100, 200 PPM IN DIET FOR 77 WK TO RATS MAINTAINED ON ZINC ADEQUATE (60 PPM) DIET (STUDY DURATION: 79 WK), Tumor Site: Type of Lesion: HEMATOPOIETIC SYSTEM: LEUKEMIA, TESTIS: TUMOR active; positive | Species: RAT, Strain/Sex: WISTAR/MALE, Route: ORAL, 25, 50, 100, 200 PPM IN DIET FOR 77 WK TO RATS MAINTAINED ON ZINC DEFICIENT (7 PPM) DIET (STUDY DURATION: 79 WK), 25, 50, 100, 200 PPM IN DIET FOR 77 WK TO RATS MAINTAINED ON ZINC DEFICIENT (7 PPM) DIET (STUDY DURATION: 79 WK), Tumor Site: Type of Lesion: HEMATOPOIETIC SYSTEM: LEUKEMIA active; positive | Species: RAT, Strain/Sex: WISTAR/MALE, Route: SUBCUTANEOUS, 5, 10, 30 UMOL ONCE ADMINISTERED TO RATS FED DIETS ADEQUATE (60 PPM) IN ZINC (STUDY DURATION: 92 WK), 5, 10, 30 UMOL ONCE ADMINISTERED TO RATS FED DIETS ADEQUATE (60 PPM) IN ZINC (STUDY DURATION: 92 WK), Tumor Site: Type of Lesion: TESTES: ADENOMA active; positive | Species: RAT, Strain/Sex: WISTAR/MALE, Route: SUBCUTANEOUS, 5, 10, 30 UMOL ONCE ADMINISTERED TO RATS FED DIETS DEFICIENT (7 PPM) IN ZINC (STUDY DURATION: 92 WK), 5, 10, 30 UMOL ONCE ADMINISTERED TO RATS FED DIETS DEFICIENT (7 PPM) IN ZINC (STUDY DURATION: 92 WK), Tumor Site: Type of Lesion: TESTES: ADENOMA, INJECTION SITE: SARCOMA active; positive
inactive: Species: HAMSTER, Strain/Sex: SYRIAN/FEMALE, Route: SUBCUTANEOUS, 30, 40, 50 UMOL/KG ONCE ON THE FOURTH DAY OF THE ESTROUS CYCLE (STUDY DURATION: 78 WK), 30, 40, 50 UMOL/KG ONCE ON THE FOURTH DAY OF THE ESTROUS CYCLE (STUDY DURATION: 78 WK) inactive; negative | Species: MOUSE, Strain/Sex: C57/MALE, Route: SUBCUTANEOUS, 20 UMOL/KG ONCE (STUDY DURATION: 104 WK) inactive; negative | Species: RAT, Strain/Sex: WISTAR/FEMALE, Route: ORAL, 1, 3, 10, 50 PPM IN DIET FOR 104 WK (STUDY DURATION: 2 YR), 1, 3, 10, 50 PPM IN DIET FOR 104 WK (STUDY DURATION: 2 YR) inactive; negative | Species: RAT, Strain/Sex: WISTAR/MALE, Route: ORAL, 1, 3, 10, 50 PPM IN DIET FOR 104 WK (STUDY DURATION: 2 YR), 1, 3, 10, 50 PPM IN DIET FOR 104 WK (STUDY DURATION: 2 YR) inactive; negative

C=C/C=N/O
inactive: Species: HAMSTER, Strain/Sex: SYRIAN/MALE, Route: GAVAGE, 2 MG/WK FOR 53 WK (STUDY DURATION: 92 WK) inactive; negative | Species: RAT, Strain/Sex: F344/FEMALE, Route: ORAL, 320 MG/L IN DRINKING WATER 5 D/WK FOR 100 WK (STUDY DURATION: 130 WK) inactive; negative | Species: RAT, Strain/Sex: F344/FEMALE, Route: ORAL, 800 MG/L IN DRINKING WATER 5 D/WK FOR 30 WK (STUDY DURATION: 130 WK) inactive; negative | Species: RAT, Strain/Sex: F344/MALE, Route: ORAL, 320 MG/L IN DRINKING WATER 5 D/WK FOR 100 WK (STUDY DURATION: 130 WK) inactive; negative | Species: RAT, Strain/Sex: F344/MALE, Route: ORAL, 800 MG/L IN DRINKING WATER 5 D/WK FOR 30 WK (STUDY DURATION: 130 WK) inactive; negative

CN(C)C(=O)Nc1cccc(C(F)(F)F)c1
equivocal: Species: MOUSE, Strain/Sex: B6C3F1/FEMALE, Route: ORAL, 500, 1000 PPM IN DIET FOR 103 WK (STUDY DURATION: 103-105 WK), 500, 1000 PPM IN DIET FOR 103 WK (STUDY DURATION: 103-105 WK), Tumor Site: Type of Lesion: LIVER: HEPATOCELLULAR CARCINOMA OR ADENOMA
active: Species: Mouse, Strain/Sex: CR CD-1/Female (60/Group), Route: Oral, 10, 500, 2000 ppm of 96.1% fluometuron in diet for 104 wk, study duration 104 wk, 10, 500, 2000 ppm of 96.1% fluometuron in diet for 104 wk, study duration 104 wk, Tumor Site: Type of Lesion: Lymphocytic lymphoma (highest dose only) active; positive | Species: Mouse, Strain/Sex: CR CD-1/Male (60/Group), Route: Oral, 10, 500, 2000 ppm of 96.1% fluometuron in diet for 104 wk, study duration 104 wk, 10, 500, 2000 ppm of 96.1% fluometuron in diet for 104 wk, study duration 104 wk, Tumor Site: Type of Lesion: Lung: Primary pulmonary neoplasia active; positive
inactive: Species: MOUSE, Strain/Sex: B6C3F1/FEMALE, Route: ORAL, 500, 1000 PPM IN DIET FOR 103 WK (STUDY DURATION: 103-105 WK), 500, 1000 PPM IN DIET FOR 103 WK (STUDY DURATION: 103-105 WK) inactive; negative | Species: RAT, Strain/Sex: F344/FEMALE, Route: ORAL, 125, 250 PPM IN DIET FOR 103 WK (STUDY DURATION: 103-105 WK), 125, 250 PPM IN DIET FOR 103 WK (STUDY DURATION: 103-105 WK) inactive; negative | Species: RAT, Strain/Sex: F344/MALE, Route: ORAL, 125, 250 PPM IN DIET FOR 103 WK (STUDY DURATION: 103-105 WK), 125, 250 PPM IN DIET FOR 103 WK (STUDY DURATION: 103-105 WK) inactive; negative | Species: Rat, Strain/Sex: Fischer 344 CD-F/Female (60/Group), Route: Oral, 10, 300, 1000 ppm of 96.1% fluometuron in diet for 2 yr, study duration 2 yr, 10, 300, 1000 ppm of 96.1% fluometuron in diet for 2 yr, study duration 2 yr inactive; negative | Species: Rat, Strain/Sex: Fischer 344 CD-F/Male (60/Group), Route: Oral, 10, 300, 1000 ppm of 96.1% fluometuron in diet for 2 yr, study duration 2 yr, 10, 300, 1000 ppm of 96.1% fluometuron in diet for 2 yr, study duration 2 yr inactive; negative

CC(C)N1C(=O)c2ccccc2NS1(=O)=O
inactive: Species: Mouse, Strain/Sex: B6C3F1/Female (70/sex/group), Route: Oral, 100, 400, 2000 ppm in diet for 2 yr, 100, 400, 2000 ppm in diet for 2 yr inactive; negative; purity 93.3% | Species: Rat, Strain/Sex: Fischer 344/DU CRJ/Female (70/sex/group), Route: Oral, 200, 800, 4000 ppm in diet for 2 yr, 200, 800, 4000 ppm in diet for 2 yr inactive; negative; purity 93.3% | Species: Rat, Strain/Sex: Fischer 344/DU CRJ/Male (70/sex/group), Route: Oral, 200, 800, 4000 ppm in diet for 2 yr, 200, 800, 4000 ppm in diet for 2 yr inactive; negative; purity 93.3%
active: Species: Mouse, Strain/Sex: B6C3F1/Male (70/sex/group), Route: Oral, 100, 400, 2000 ppm in diet for 2 yr, 100, 400, 2000 ppm in diet for 2 yr, Tumor Site: Type of Lesion: Liver: Combined hepatocellular adenoma and carcinoma (13/49 in controls and 22/49 at highest dose) active; positive; purity 93.3%
